Results from US20240376094A2, “SELECTIVE BCL-XL PROTAC COMPOUNDS AND METHODS OF USE” (Les Laboratoires Servier, priority 2021, published 2024).

Key:
Type in all cases: cell-based
[1] = system: NCI-H1650; test: CellTiter-Glo 3D proliferation assay, NCI-H1650 spheroids; set-up: key to NCI-H1650 Span (Amax): —: constructs were tested and inactive; conditions: 5 days; for IC50 / Emax: Homo sapiens, NCI-H1650, 120 h; for Emax: read-out: NCI-H1650 Span (Amax)
Description: (§1) The BCL-xL degrader compounds were tested against two endogenous cancer cell lines: • COR-L105: ECACC No. 92031918 cultured in RPMI-1640+10% FBS • NCI-H1650: (ATCC No. CRL-5883 cultured in RPMI-1640+10% FBS
(§2) The ability of the BCL-xL degrader low molecular weight compounds to inhibit cell proliferation and survival was assessed using the Promega CellTiter-Glo® proliferation assay.
(§3) Cell lines were cultured in media that is optimal for their growth at 5% CO2, 37° C. in a tissue culture incubator. Prior to seeding for the proliferation assay, the cells were split at least 2 days before the assay to ensure optimal growth density. On the day of seeding, adherent cells were lifted off tissue culture flasks using 0.25% trypsin. Cell viability and cell density were determined using a cell counter (Vi-Cell XR Cell Viability Analyzer, Beckman Coulter). Cells with higher than 85% viability were seeded for the assay.
(§4) The COR-105 cell line was seeded in white, clear bottom 384-well TC treated plates (Corning cat. #3765). Cells were seeded at a density of 1,000 cells per well in 45 μL of standard growth media. Plates were incubated at 5% CO2, 37° C. overnight in a tissue culture incubator. The NCI-H1650 cell line was seeded in black, clear round bottom 384-well ultra-low attachment spheroid microplates (Corning cat. #3830). Cells were seeded at a density of 3,000 cells per well in 45 uL of standard growth media. Plates were spun in a centrifuge for 5 minutes and 1,000 RPM. Plates were incubated at 5% CO2, 37° C. for 72 hours in a tissue culture incubator.
(§5) On the day of dosing, BCL-xL degrader low molecular weight compounds were prepared at 1 OX in standard growth media. The prepared drug treatments were then added to the cells resulting in final concentrations of 0.508 nM-10 μM and a final volume of 50 μL per well. Each drug concentration was tested in quadruplets. Plates were incubated at 5% CO2, 37° C. for 5 days in a tissue culture incubator.
(§6) For COR-L105 plates, cell viability was assessed through the addition of 25 μL of CellTiter Glo® (Promega, cat #G7573), a reagent which lyses cells and measures total adenosine triphosphate (ATP) content. Plates were incubated at room temperature for 10 minutes to stabilize luminescent signals prior to reading with a luminescence reader (EnVision Multilabel Plate Reader, PerkinElmer). For NCI-H1650 plates, cell viability was assessed through the addition of 40 μL of CellTiter Glo® 3D Cell Viability Assay substrate (Promega, cat #G9681), a reagent which lyses cells and measures total adenosine triphosphate (ATP) content. Wells were mixed thoroughly and plates were incubated at room temperature for 30 minutes to stabilize luminescent signals prior to reading using a luminescence reader (EnVision Multilabel Plate Reader, PerkinElmer).
(§7) To evaluate the effect of the drug treatments, luminescent counts from wells containing untreated cells (100% viability) were used to normalize treated samples. A variable slope model was applied to fit a nonlinear regression curve to the data in GraphPad PRISM version 7.02 software. IC50 and Amax values were extrapolated from the resultant curves. The concentrations of treatment required to inhibit 50% of cell growth or survival (IC50) were calculated with representative IC50 values of the cell lines tested summarized in Table 11.

[2] = system: COR-L105; test: CellTiter-Glo proliferation assay, COR-L105; conditions: Homo sapiens, COR-L105, 120 h, COR-L105, 5 days; for Emax: read-out: COR-L105 Span (max)
Description: as §1, §2, §3, §4, §5, §6, §7

[3] = system: MOLT-4 cells; test: MOLT-4 cell viability, CTG assay; conditions: MOLT-4, 48 h
In short: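 Cells grown in RPMI 1640 with 10% FBS at 37° C, 5% CO2, then exposed to compounds for 48 h (11-point 5-fold dilution, triplicates). ATP measured by CellTiter-Glo luminescence; IC50 from four-parameter fit versus control, mean of ≥2 independent experiments.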

[4] = system: MOLT-4 cells; test: MOLT-4 cell viability, MTT assay; conditions: Homo sapiens, MOLT-4, 48 h
In short: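 MOLT-4 cells in RPMI 1640 with 10% FBS were exposed to compounds for 48 h at 9 concentrations (3.16-fold dilutions, triplicates). After 4 h with MTT and overnight SDS/HCl solubilisation, absorbance was read at 540 nm. IC50 came from four-parameter fits versus control, as the mean of ≥2 independent experiments.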

[5] = target: T1, Bcl-xL (Homo sapiens, UniProt Q07817); test: HCT116 Bcl-xL degradation, capillary-based immunoassay (WES); conditions: for DC50: HCT116, 24 h, 9-point serial dilution; for remaining activity at 0.01 µM / remaining activity at 0.1 µM: HCT-116, 24 h, % of untreated cells; for remaining activity at 0.01 µM: HCT116, 10 nM; for remaining activity at 0.1 µM: HCT116, 100 nM
T1 construct: Measured levels of Bcl-xL protein of HCT116 cells treated with the tested compounds; host or cells: HCT116
T1 sequence (Q07817 whole entry): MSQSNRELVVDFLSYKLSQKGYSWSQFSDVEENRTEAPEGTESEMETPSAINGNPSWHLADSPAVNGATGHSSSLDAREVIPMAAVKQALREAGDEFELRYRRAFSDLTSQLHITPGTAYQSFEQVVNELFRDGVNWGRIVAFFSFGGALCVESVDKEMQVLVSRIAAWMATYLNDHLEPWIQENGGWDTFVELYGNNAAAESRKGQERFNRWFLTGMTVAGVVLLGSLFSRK
In short: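 HCT116 cells treated 24 h with compound at 10/100 nM and/or 9-point dilution (quadruplicates), then lysed. Bcl-xL measured by capillary WES immunoassay, normalized to cofilin and expressed as % of untreated cells. DC50 from four-parameter curve fit.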

Row | Structure (SMILES) | IC50 [1] | Emax [1] | IC50 [2] | Emax [2] | IC50 [3] | IC50 [4] | DC50 [5] | remaining activity at 0.01 µM [5] | remaining activity at 0.1 µM [5] | NCI-H1650 Span (Amax) [1]
1 | Cc1c(Nc2nc3ccccc3s2)nnc2c1CCCN2c1nc(C(=O)O)c(CCCOc2ccc(C#CCN3CCN(C(=O)CCCC(=O)NCCOCCNC(=O)COc4cccc5c4C(=O)N(C4CCC(=O)NC4=O)C5=O)CC3)cc2F)s1 (centres unmarked) [Example 26, 2-[3-(1,3-benzothiazol-2-ylamino)-4-methyl-6,7-dihydro-5H-pyrido[2,3-c]pyridazin-8-yl]-5-[3-[4-[3-[4-[5-[2-[2-[[2-[2-(2,6-dioxo-3-piperidyl)-1,3-dioxo-isoindolin-4-yl]oxyacetyl]amino]ethoxy]ethylamino]-5-oxo-pentanoyl]piperazin-1-yl]prop-1-ynyl]-2-fluoro-phenoxy]propyl]thiazole-4-carboxylic acid] | 56.9 nM | 70.1% | 212 nM | 88% | 26 nM | 20.9 nM | > 316 nM | 63% | 51% | 
2 | Cc1ncsc1-c1ccc(CNC(=O)C2C[C@@H](O)CN2C(=O)C(NC(=O)CCCCCC(=O)N2CCN(CCOC34CC5(C)CC(C)(CC(Cn6ncc(-c7ccc(N8CCCc9c8nnc(Nc8nc%10ccccc%10s8)c9C)nc7C(=O)O)c6C)(C5)C3)C4)CC2)C(C)(C)C)cc1 (stereo in doubt) [Example 22, 6-[3-(1,3-benzothiazol-2-ylamino)-4-methyl-6,7-dihydro-5H-pyrido[2,3-c]pyridazin-8-yl]-3-[1-[[3-[2-[4-[7-[[(1S)-1-[(2S,4R)-4-hydroxy-2-[[4-(4-methylthiazol-5-yl)phenyl]methylcarbamoyl]pyrrolidine-1-carbonyl]-2,2-dimethyl-propyl]amino]-7-oxo-heptanoyl]piperazin-1-yl]ethoxy]-5,7-dimethyl-1-adamantyl]methyl]-5-methyl-pyrazol-4-yl]pyridine-2-carboxylic acid] | 72.8 nM | 92.6% | 275 nM | 104% |  | 4.7 nM | > 316 nM | 68% | 54% | 
3 | Cc1ncsc1-c1ccc(CNC(=O)[C@@H]2CC(O)CN2C(=O)C(NC(=O)CCCCC(=O)N2CCN(CCOC34CC5(C)CC(C)(CC(Cn6ncc(-c7ccc(N8CCCc9c8nnc(Nc8nc%10ccccc%10s8)c9C)nc7C(=O)O)c6C)(C5)C3)C4)CC2)C(C)(C)C)cc1 (stereo in doubt) [Example 23, 6-[3-(1,3-benzothiazol-2-ylamino)-4-methyl-6,7-dihydro-5H-pyrido[2,3-c]pyridazin-8-yl]-3-[1-[[3-[2-[4-[6-[[(1S)-1-[(2S,4R)-4-hydroxy-2-[[4-(4-methylthiazol-5-yl)phenyl]methylcarbamoyl]pyrrolidine-1-carbonyl]-2,2-dimethyl-propyl]amino]-6-oxo-hexanoyl]piperazin-1-yl]ethoxy]-5,7-dimethyl-1-adamantyl]methyl]-5-methyl-pyrazol-4-yl]pyridine-2-carboxylic acid] | 35.7 nM | 71.4% | 183 nM | 100% |  | 10.5 nM |  | 82% | 67% | 
4 | Cc1c(Nc2nc3ccccc3s2)nnc2c1CCCN2c1nc(C(=O)O)c(CCCOc2ccc(C#CCN3CCN(C(=O)CCCCCCC(=O)NCCOCCNC(=O)COc4cccc5c4C(=O)N(C4CCC(=O)NC4=O)C5=O)CC3)cc2F)s1 (centres unmarked) [Example 25, 2-[3-(1,3-benzothiazol-2-ylamino)-4-methyl-6,7-dihydro-5H-pyrido[2,3-c]pyridazin-8-yl]-5-[3-[4-[3-[4-[8-[2-[2-[[2-[2-(2,6-dioxo-3-piperidyl)-1,3-dioxo-isoindolin-4-yl]oxyacetyl]amino]ethoxy]ethylamino]-8-oxo-octanoyl]piperazin-1-yl]prop-1-ynyl]-2-fluoro-phenoxy]propyl]thiazole-4-carboxylic acid] | 38.8 nM | 74% | 174 nM | 87.4% |  | 1.09 nM | > 316 nM | 59% | 55% | 
5 | Cc1cc(N(C)c2nc(C(=O)O)c(CCCOc3ccc(C#CCN(C)CC(=O)NCCOCCNC(=O)COc4cccc5c4C(=O)N(C4CCC(=O)NC4=O)C5=O)cc3F)s2)nnc1Nc1nc2ccccc2s1 (centres unmarked) [Example 32, 2-[[6-(1,3-benzothiazol-2-ylamino)-5-methyl-pyridazin-3-yl]-methyl-amino]-5-[3-[4-[3-[[2-[2-[2-[[2-[2-(2,6-dioxo-3-piperidyl)-1,3-dioxo-isoindolin-4-yl]oxyacetyl]amino]ethoxy]ethylamino]-2-oxo-ethyl]-methyl-amino]prop-1-ynyl]-2-fluoro-phenoxy]propyl]thiazole-4-carboxylic acid] | > 1000 nM |  | > 10000 nM |  |  | 64.2 nM |  | 83% | 53% | —
